{
  "source": "patent US10772909B2",
  "about": "“System and method for insulin-mimetic of cartilage, bone, or osteochondral repair and piezoelectric composite scaffold” (New Jersey Institute of Technology, priority 2016, dated 2020)",
  "key": {"[1]": {"system": "PBMCs", "assay": "CellTiter-Blue viability assay", "format": "cell-based, human", "conditions": "0.01, 0.1 and 1 mM Na2WO4; 4 days exposure", "method": "CellTiter-Blue Assay (Promega, Madison, Wis.) was used to assess the viability of PBMCs. Cell Titre Blue was used to measure the metabolic activity of PBMCs as a surrogate for cell number. Each experimental group was performed in triplicate in 96-well tissue culture plates. After 4 days, CellTiter-Blue reagent (20 μL/well) was added to each well. The plates were incubated and after 4 hours, the fluorescence intensity was measured with microplate reader (Synergy, HTX, BioTek, Winooski, Vt., USA) at 560/590 nm emission. Percent viability was calculated as the fluorescence reading of treated (stimulated) cells divided by untreated healthy cells, which were considered 100% viable as described in Greco et al.."}, "[2]": {"system": "aggrecan", "assay": "Chondrogenesis culture: gene expression by RT-PCR, aggrecan", "format": "cell-based, human", "conditions": "for aggrecan gene expression vs 0 and 1 mM groups: CCM without insulin", "method": "(§1) Chondrogenesis Culture. Cryopreserved MSCs were thawed and expanded in GM until 70-80% confluent. Cells were trypsininzed and then seeded on 6 mm diameter scaffold disks at 1.76×10^5 cells/cm^2 and cultured for 28 days in GM, chondrogenic induction medium (CCM), or CCM without insulin, according to previously published methods. CCM consisted of DMEM high glucose containing 4 mM L-glutamine (Invitrogen, Grand Island, N.Y., USA), 0.1 μM dexamethasone (Sigma-Aldrich), 0.17 mM ascorbic acid-2-phosphate (Wako Chemicals, Richmond, Va., USA), 1% ITS+(6.25 µg/mL insulin, 6.25 µg/mL transferrin, 6.25 ng/mL selenous acid, 5.35 μg/ml linoleic acid and 1.25 mg of bovine serum albumin) Premix Culture Supplement (Corning, Corning, N.Y., USA), 1× antibiotic-antimycotic, 1 mM sodium pyruvate (Sigma-Aldrich), 0.35 mM proline (Sigma-Aldrich), and 10 ng/mL recombinant human transforming growth factor-beta3 (TGF-β3, ProSpec, Israel). CCM without insulin consisted of CCM where the 1% ITS+Premix Culture Supplement was substituted with 1% stock solution (6.25 μg/ml transferrin and 6.25 ng/ml selenous acid, 5.35 μg/ml lionleic acid (Sigma-Aldrich) and 1.25 mg of bovine serum albumin (Fisher Scientific). Na2WO4 was added to all media leading to final Na2WO4 concentrations of 0, 0.01, 0.1 and 1 mM. Samples were harvested and analyzed for sulfated glycosaminoglycans (sGAG), cell number and gene expression at day 14 and 28 and for collagen type II and immunostaining at day 28.\n(§2) Gene expression was evaluated using quantitative reverse transcription (RT)-polymerase chain reaction (PCR) analysis. RT-PCR was performed with RNeasy Micro Kit and SYBR Green RT-PCR Kit (Qiagen; Valencia, Calif., USA) using the MX4000 detection system (Stratagene) according to the manufacturer's protocol. Relative gene expression of SOX-9, aggrecan and collagen type II were determined. Samples (n=4 per group) were harvested and digested using Lysis Buffer. RNA was isolated from the samples using RNeasy Micro Kit (Qiagen) including DNA digestion step (RNase Free DNase Set; Qiagen). The RNA quantity and integrity were determined by measuring the absorbance at 260 nm and the absorbance ratio of 260 nm/280 nm, respectively, using Nanodrop™ Spectrophotometer (Thermo Fisher Scientific). Quantitative PCR analysis was performed using QuantiTect SYBR Green supermix including the QuantiTect Primer Assays. The reverse transcription step ran for 30 minutes at 50° C., 15 minutes at 95° C. of PCR activation followed by forty cycle of amplification consisting of 15 s denaturation at 94° C., 30 s of annealing at 55° C., and 30 s of extension at 72° C. A melting curve analysis of the RT-PCR product was included for each reaction. Samples were analyzed in triplicate and the value of each gene was normalized to the reference gene ribosomal protein, large, P0 (RPLP0) for the same sample (ΔCT). Primers were purchased from Qiagen (Hs_ACAN, QT00001365; Hs_SOX9, QT00001498; Hs_COL2A1, QT00049518; and Hs_RPLP0 QT00075012)."}, "[3]": {"system": "collagen type II", "assay": "Chondrogenesis culture: gene expression by RT-PCR, collagen type II", "format": "cell-based, human", "conditions": "for collagen type II gene expression vs 0 and 1 mM groups: CCM without insulin, days 14 and 28; for collagen type II gene expression vs 0 mM: day 14", "method": "as §1, §2"}, "[4]": {"system": "Human MSCs", "assay": "Chondrogenesis culture: immunostaining, confocal microscopy", "format": "cell-based", "conditions": "day 28", "method": "as §1\nImmunostaining was used to observe cell morphology and collagen type II deposition at day 28. Samples were fixed using 4% paraformaldehyde for 20 minutes. Samples were permealized with 0.1% Triton-X for 15 minutes and then non-specific binding was blocked using 5% donkey serum (Sigma-Aldrich, Mo., USA) for 1 hour. Samples were incubated with mouse antihuman collagen type II antibody (EMD Millipore; Calif., USA) in 4° C. overnight. Samples were then incubated with conjugated northern light 493 secondary antibody (Donkey anti-Mouse IgG, Fisher Scientific, Rockford, Ill.) and rhodamine phalloidin (Life Technologies) for actin filament for 1 h. The nucleus was stained with 4′,6-diamidino-2-phenylindole (DAPI, Fisher Scientific). The images were taken using a confocal fluorescence microscope (Cl-si, Nikon, Japan)."}, "[5]": {"system": "collagen type II", "assay": "Collagen type II ELISA", "format": "cell-based, human", "conditions": "day 28", "method": "as §1\nCollagen type II production was quantified by enzyme-linked immunosorbent assay (ELISA) using a collagen type II detection kit (Chondrex Inc. Redmond, Wash., USA). The ELISA was conducted following the manufacturer's instructions. Briefly, samples (n=4 per group) were harvested at day 28 and washed with PBS. Collagen was digested by adding pepsin solution (0.1 mg/ml in 0.05 M acetic acid) at 4 C° for two days with gentle mixing. The digested samples were centrifuged for 3 minutes and supernatants were collected. Pancreatic elastase was added to the samples and incubated overnight at 4° C. Supernatants were then collected. The ELISA plate which was coated with collagen type II was prepared as described by the manufacturer and the absorbance at 490 nm was measured using a microplate spectrophotometer (Emax, Molecular Devices). The collagen type II production was determined relative to the standard curve."}, "[6]": {"assay": "Sodium tungstate in the scaffold: cell and tissue growth, cytocompatibility", "format": "cell-based", "conditions": "0.01-5 weight (wt.) % sodium tungstate in the scaffold"}},
  "data": [
    {"smiles": "[Na+].[Na+].[O]=[W](=[O])([O-])[O-]", "note": "[Na2WO4, sodium tungstate]", "values": [
      {"measurement": "PBMC cell viability vs 0 mM", "setting": "[1]", "value": "No significant differences in cell viability"},
      {"measurement": "aggrecan gene expression vs 0 and 1 mM groups", "setting": "[2]; 0.01 mM Na2WO4, days 14 and 28", "value": "significantly higher"},
      {"measurement": "aggrecan gene expression vs 0 mM", "setting": "[2]; 0.01 mM Na2WO4, CCM, day 14, p<0.05", "value": "lower aggrecan expression"},
      {"measurement": "aggrecan gene expression vs 0 and 1 mM groups", "setting": "[2]; 0.1 mM Na2WO4, days 14 and 28", "value": "significantly higher"},
      {"measurement": "aggrecan gene expression vs all groups", "setting": "[2]; 0.1 mM Na2WO4, CCM, days 14 and 28", "value": "significantly higher"},
      {"measurement": "aggrecan gene expression", "setting": "[2]; 1 mM Na2WO4, CCM", "value": "lowest gene expression"},
      {"measurement": "aggrecan gene expression (chondrogenic genes)", "setting": "[2]; GM with Na2WO4", "value": "no significant upregulation of chondrogenic genes"},
      {"measurement": "collagen type II gene expression, change between days 14 and 28", "setting": "[3]; 0.01 mM Na2WO4, CCM", "value": "significant increase in collagen type II expression"},
      {"measurement": "collagen type II gene expression vs 0 and 1 mM groups", "setting": "[3]; 0.01 mM Na2WO4", "value": "significantly higher"},
      {"measurement": "collagen type II gene expression vs 0 mM", "setting": "[3]; 0.01 mM Na2WO4, CCM, p<0.001", "value": "significantly higher collagen type II"},
      {"measurement": "collagen type II gene expression vs all groups", "setting": "[3]; 0.01 mM Na2WO4, CCM, day 28, p<0.001", "value": "significantly higher"},
      {"measurement": "collagen type II gene expression vs 0 and 1 mM groups", "setting": "[3]; 0.1 mM Na2WO4", "value": "significantly higher"},
      {"measurement": "collagen type II gene expression vs 0 mM", "setting": "[3]; 0.1 mM Na2WO4, CCM, p<0.001", "value": "significantly higher collagen type II"},
      {"measurement": "collagen type II gene expression", "setting": "[3]; 1 mM Na2WO4, CCM", "value": "lowest gene expression"},
      {"measurement": "collagen type II gene expression (chondrogenic genes)", "setting": "[3]; GM with Na2WO4", "value": "no significant upregulation of chondrogenic genes"},
      {"measurement": "collagen type II immunostaining vs 0 mM", "setting": "[4]; 0.01 mM Na2WO4, GM", "value": "more intense"},
      {"measurement": "collagen type II immunostaining vs 0 mM", "setting": "[4]; 0.1 mM Na2WO4, GM", "value": "more intense"},
      {"measurement": "collagen type II immunostaining", "setting": "[4]; CCM without insulin groups, except for 1 mM Na2WO4", "value": "showed collagen type II staining"},
      {"measurement": "collagen type II immunostaining vs 0 mM", "setting": "[4]; Na2WO4 groups, CCM", "value": "more intense collagen type II staining"},
      {"measurement": "actin filament staining as an indicator of attachment", "setting": "[4]; all groups", "value": "intense actin filament staining"},
      {"measurement": "collagen type II production vs all other groups", "setting": "[5]; 0.01 mM Na2WO4, CCM, p<0.001", "value": "highest collagen type II"},
      {"measurement": "collagen type II production vs 0 mM group", "setting": "[5]; 0.01 mM Na2WO4, GM, p<0.05", "value": "significantly higher collagen type II"},
      {"measurement": "collagen type II production vs 0 mM and 1 mM", "setting": "[5]; 0.1 mM Na2WO4, CCM, p<0.001", "value": "significantly higher collagen type II production"},
      {"measurement": "collagen type II production", "setting": "[5]; 1 mM Na2WO4, CCM, p<0.001", "value": "lowest"},
      {"measurement": "collagen type II production", "setting": "[5]; CCM without insulin groups", "value": "not detected"},
      {"measurement": "cell and tissue growth and cytocompatibility", "setting": "[6]", "value": "promoted excellent cell and tissue growth results and cytocompatibility results"}
    ]}
  ]
}
